Experiments:
Format in all cases: in vivo
Amaranthus viridis [1] = assay: Test Example 14: herbicidal effect test by foliage treatment in upland field; conditions: 7 days after sowing, 120 g/10a, 14 days after treatment
In short: (§1)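 Dose: 120 g a.i. per 10 are, sprayed in 100 L water per 10 are onto pots seven days post-sowing in alluvial soil. After 14 days, weed dry weight relative to untreated plots gave suppression rate (%); duplicate plots per concentration.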

Echinochloa crus-galli [2] = assay: as above; conditions: 7 days after sowing, 120 g/10a, 14 days after treatment
In short: as §1

Amaranthus viridis [3] = assay: Test Example 13: herbicidal effect test by soil treatment in upland field; conditions: 120 g/10a, 14 days after treatment
In short: (§2)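 Soil-applied emulsifiable concentrate at 120 g active ingredient per 10 are, sprayed one day after seeding into alluvial soil pots. Dry-weight-based suppression scored at 14 days; two replications.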

crabgrass [4] = assay: as above; conditions: 120 g/10a, 14 days after treatment
In short: as §2

Echinochloa crus-galli [5] = assay: as above; conditions: 120 g/10a, 14 days after treatment
In short: as §2

Chenopodium album [6] = assay: as above; conditions: 120 g/10a, 14 days after treatment
In short: as §2

Monochoria vaginalis [7] = assay: Test Example 11: herbicidal effect test by soil treatment in paddy field; conditions: 120 g/10a active ingredient, 14 days after treatment
In short: (§3)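 Dry weight at day 14 relative to untreated controls gives the suppression rate; duplicate pots. Treatment: 120 g a.i./10 are into paddy water at sowing.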

Lindernia pyxidaria [8] = assay: as above; conditions: 120 g/10a active ingredient, 14 days after treatment
In short: as §3

Scirpus juncoides [9] = assay: as above; conditions: 120 g/10a active ingredient, 14 days after treatment
In short: as §3

Echinochloa crus-galli [10] = assay: as above; conditions: 120 g/10a active ingredient, 14 days after treatment
In short: as §3

Monochoria vaginalis [11] = assay: Test Example 12: herbicidal effect test by treatment during growing period in paddy field; conditions: 120 g/10a; treatment seven days after sowing in flooded paddy pot; assessed 14 days after treatment
In short: (§4)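 Weed suppression (%) = (1 − treated/untreated mean dry weight) × 100, scored 14 days after treatment with two replicates per plot. Dose 120 g a.i. per 10 are, as diluted emulsifiable concentrate added dropwise to flooded pots (water about 3 cm) 7 days post-sowing, seeds at 0-1 cm.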

Lindernia pyxidaria [12] = assay: as above; conditions: 120 g/10a; treatment seven days after sowing in flooded paddy pot; assessed 14 days after treatment
In short: as §4

Scirpus juncoides [13] = assay: as above; conditions: 120 g/10a; treatment seven days after sowing in flooded paddy pot; assessed 14 days after treatment
In short: as §4

Echinochloa crus-galli [14] = assay: as above; conditions: 120 g/10a; treatment seven days after sowing in flooded paddy pot; assessed 14 days after treatment
In short: as §4

crabgrass [15] = assay: Test Example 14: herbicidal effect test by foliage treatment in upland field; conditions: 7 days after sowing, 120 g/10a, 14 days after treatment
In short: as §1

Chenopodium album [16] = assay: as above; conditions: 7 days after sowing, 120 g/10a, 14 days after treatment
In short: as §1

Row | Structure (SMILES) | herbicidal effect, Amaranthus viridis (Amaranthus viridis [1]) [%] | herbicidal effect, Echinochloa crus-galli (Echinochloa crus-galli [2]) [%] | herbicidal effect, Amaranthus viridis (Amaranthus viridis [3]) [%] | herbicidal effect, Crabgrass (crabgrass [4]) [%] | herbicidal effect, Echinochloa crus-galli (Echinochloa crus-galli [5]) [%] | herbicidal effect, Chenopodium album (Chenopodium album [6]) [%] | Weed suppression rate (%) Monochoria vaginalis (Monochoria vaginalis [7]) [%] | Weed suppression rate (%) Lindemia pyxidaria (Lindernia pyxidaria [8]) [%] | Weed suppression rate (%) Scirpus juncoides (Scirpus juncoides [9]) [%] | Weed suppression rate (%) Echinochloa crus-galli (Echinochloa crus-galli [10]) [%] | Weed suppression rate (%) Monochoria vaginalis (Monochoria vaginalis [11]) [%] | Weed suppression rate (%) Lindemia pyxidaria (Lindernia pyxidaria [12]) [%] | Weed suppression rate (%) Scirpus juncoides (Scirpus juncoides [13]) [%] | Weed suppression rate (%) Echinochloa crus-galli (Echinochloa crus-galli [14]) [%] | herbicidal effect, Crabgrass (crabgrass [15]) [%] | herbicidal effect, Chenopodium album (Chenopodium album [16]) [%]
1 | CC(C)N(C(=O)n1cnn(S(=O)(=O)C2CC2)c1=O)c1ccccc1F [Compound 11-160] | 90 | 80 | 90 | 90 | 80 | 80 | 70 | 90 | 90 | 100 | 70 | 90 | 90 | 100 | 90 | 80
2 | CC(C)N(C(=O)n1cnn(S(=O)(=O)C2CC2)c1=O)c1ccc(F)cc1 [Compound 11-162] | 90 | 80 | 90 | 90 | 80 | 80 | 90 | 90 | 90 | 100 | 80 | 80 | 90 | 90 | 90 | 80
3 | CC(C)N(C(=O)n1cnn(S(=O)(=O)C2CC2)c1=O)c1cccc(F)c1F [Compound 11-189] | 60 | 100 | 100 | 100 | 100 | 90 | 90 | 100 | 90 | 100 | 100 | 80 | 100 | 100 | 100 | 80
4 | CC(C)N(C(=O)n1cnn(S(=O)(=O)C2CC2)c1=O)c1c(F)cccc1F [Compound 11-191] | 60 | 100 | 70 | 100 | 100 | 70 | 90 | 100 | 100 | 100 | 90 | 90 | 90 | 100 | 100 | 60
5 | CC(C)N(C(=O)n1cnn(S(=O)(=O)C2CC2)c1=O)c1ccc(F)c(F)c1F [Compound 11-194] | 90 | 100 | 100 | 90 | 90 | 70 | 100 | 100 | 100 | 100 | 100 | 100 | 100 | 100 | 100 | 80

From patent US11076595B2, “1-(n,n-disubstituted carbamoyl) 4-(substituted sulfonyl)triazolin-5-one derivative, 4-(n,n-disubstituted carbamoyl) 1-(substituted sulfonyl)triazolin-5-one derivative, and herbicide containing said derivative as active ingredient” (HOKKO CHEMICAL INDUSTRY CO., LTD., priority 2017, dated 2021)
